This experiment concerns the target T1, PfJmj3 (Plasmodium falciparum, UniProt Q8IIE4).
T1 sequence (Q8IIE4 1-446): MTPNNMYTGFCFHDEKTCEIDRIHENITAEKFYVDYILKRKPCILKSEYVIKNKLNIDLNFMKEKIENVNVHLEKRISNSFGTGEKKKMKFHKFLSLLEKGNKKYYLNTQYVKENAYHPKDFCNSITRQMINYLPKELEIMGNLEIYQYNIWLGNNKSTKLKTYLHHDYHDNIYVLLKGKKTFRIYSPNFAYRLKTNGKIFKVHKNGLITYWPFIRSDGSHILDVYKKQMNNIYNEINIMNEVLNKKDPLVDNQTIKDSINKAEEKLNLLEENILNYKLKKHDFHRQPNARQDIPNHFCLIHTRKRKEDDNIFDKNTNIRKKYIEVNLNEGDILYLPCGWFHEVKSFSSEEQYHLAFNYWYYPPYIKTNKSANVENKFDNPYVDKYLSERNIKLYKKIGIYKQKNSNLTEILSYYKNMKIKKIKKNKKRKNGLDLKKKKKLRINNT
Description: Succinate-Glo luciferase-coupled assay. It counts as biochemical.

`Clc1ccc(N/N=C(\c2ccccc2)c2ccccn2)nc1` [JIB-04 E] yielded a half-maximal inhibitory concentration (IC50) of 2600 nM. To `CN(C)CCCNC(=O)c1ccc(-c2cc(O)c3ncccc3c2)cc1` [ML324] belongs 3300 nM; to `CC(C)C(=O)NC(c1ccco1)c1ccc2cccnc2c1O` (stereo not drawn) [SD-70], 2400 nM.

Source of the values: article PMC7748244 (ACS Infectious Diseases, 2020).
